Where two headings read alike, the source gives them in different places.
Assays:
[1] = test system: D-aminogalactose-induced acute liver damage; test: D-aminogalactose-induced acute liver damage of rats; assay type: in vivo, Wistar Rats
From the text: Wistar Rats (body weight of each was 180 g˜220 g; half of them were male and the others were female; and they were purchased from Shanghai Slac Laboratory Animal, Inc.) were divided randomly into 6 groups as follows with 10 rats in each group: (1) the diammonium glycyrrhizinate injection group, injected with diammonium glycyrrhizinate; (2) the high dose group, immunized with Peptide A and adjuvant; (3) the medium dose group, immunized with Peptide A and adjuvant; (4) the low dose group, immunized with Peptide A and adjuvant; (5) the blank control group; and (6) the model group.
Rats in the high dose group, the medium dose group and the low dose group were immunized as follows: At Day 0, the first immunization was performed by the following process: 100 μl of Peptide A dissolved in physiological saline was mixed thoroughly with the equivalent volume of Freund's complete adjuvant, and then 0.2 ml of the resultant water-in-oil emulsion was administered via subcutaneous injection to each rat, wherein the dosage of Peptide A contained in the emulsion was 174 μg/kg rat body weight for the high dose group, 87 μg/kg rat body weight for the medium dose group, and 43.5 μg/kg rat body weight for the low dose group respectively. 14 days later, the second immunization was performed in the same dosage and manner as the first immunization except that, Freund's complete adjuvant was replaced by Freund's incomplete adjuvant. […]
At the 48th hour after intraperitoneally injecting D-aminogalactose, each rat was sacrificed by cervical dislocation, and blood was collected. After sera were isolated, according to the specification of the manufacturer, the activities of glutamic-pyruvic transaminase (SGPT) and glutamic-oxalacetic transaminase (SGOT) in sera were detected respectively by using Glutamic-pyruvic Transaminase Detection Kit (purchased from Nanjing Jiancheng Bioengineering Institute) and Glutamic-oxalacetic Transaminase Detection Kit (purchased from Nanjing Jiancheng Bioengineering Institute).

γ-IFN [2] = test: Level of γ-IFN in sera of immunized mice by ELISA; assay type: in vivo, BALB/c Mice; conditions: first day after the fourth immunization
Experimental: (§1) BALB/c Mice, all of which are male, 6 week old, and purchased from the Laboratory Animal Center of Academy Of Military Medical Sciences, Beijing, were divided into 4 groups as follows with 5 mice in each group: (1) the control group; (2) the Peptide A group, immunized with Peptide A; (3) the Peptide B group, immunized with Peptide B; and (4) the Peptide C group, immunized with Peptide C.
(§2) 50 μl of the peptide (100 μg/μl) used in the corresponding group and 50 μl of Freund's complete adjuvant (GIBCOBRL Corp.) were mixed thoroughly with a microstirrer, and the mixture was injected into the claw pad of a mouse, thereby the first immunization was performed for each of the mice. 14 days later, booster immunization was performed in the same manner as the first immunization with 50 μl of the peptide (100 μg/μl) used in the corresponding group and 50 μl of Freund's complete adjuvant (GIBCOBRL Corp.). 14 days later, another booster immunization was performed in the same manner. 14 days later, boost immunization was performed by injecting 100 μg of the peptide dissolved in 200 μl PBS into the mouse intramuscularly. During the process of immunization, only the corresponding adjuvant and PBS were injected for the control group. At the first day after the fourth immunization, mice were sacrificed and sera were collected.
(§3) According to the specification of the manufacturer, the levels of cytokines (i.e., IL-4, IL-10, and γ-IFN) in sera of the above immunized mice were detected respectively by using IL-4 Quantikine ELASA Kit, IL-10 Quantikine ELASA Kit, and γ-IFN Quantikine ELASA Kit (all of which are purchased from R&D, Inc.).

γ-IFN [3] = test: Effects of the peptide on γ-IFN of rats in vivo; parameters: species or system SD Rats; conditions: four immunizations
From the text: SD Rats (body weight of each was 180 g˜220 g; half of them were male and the others were female; and they were purchased from the Animal Institute of Academy Of Military Medical Sciences) were divided randomly into 5 groups as follows with 10 rats in each group: (1) the blank control group; (2) the adjuvant control group; (3) the high dose group, immunized with Peptide A and adjuvant; (4) the low dose group, immunized with Peptide A and adjuvant; and (5) the peptide group, immunized with Peptide A only.
Rats in the high dose group and the low dose group were immunized as follows: At Day 0, the first immunization was performed by the following process: Peptide A dissolved in physiological saline was mixed thoroughly with the equivalent volume of Freund's complete adjuvant, and then 0.1 ml of the resultant water-in-oil emulsion was administered via subcutaneous injection to each rat, wherein the dosage of Peptide A contained in the emulsion was 50 μg/kg rat body weight for the high dose group and 25 μg/kg rat body weight for the low dose group respectively. […]
At the first day after the fourth immunization, rats from every group were sacrificed and splenocytes were collected. […] According to the specification of the manufacturer, the level of γ-IFN in sera of the above immunized rats was detected by using γ-IFN ELASA Quantikine ELASA Kit (purchased from R&D, Inc.).

[4] = test system: BCG vaccine and lipopolysaccharide-induced immunological liver damage; assay type: in vivo, Wistar Rats; conditions: for pathological condition of liver (score) versus model group: P<0.05
[5] = test system: tetrachloromethane-induced liver damage; test: Tetrachloromethane-induced liver damage of mice; assay type: in vivo, BALB/c mice
Experimental: At the first before the first immunization, 0.05 ml CCl4 (available from Shanghai Linfen Chemical Reagent Co., Ltd.) was administered via subcutaneous injection to each mouse of all groups other than the blank control group; and the equivalent volume of physiological saline was injected for the blank control group.
Mice in the high dose group, the medium dose group and the low dose group were immunized as follows: the first immunization was performed by the following process: 1000 of Peptide A dissolved in physiological saline was mixed thoroughly with the equivalent volume of Freund's complete adjuvant, and then 0.2 ml of the resultant water-in-oil emulsion was administered via subcutaneous injection to each mouse, wherein the dosage of Peptide A contained in the emulsion was 250 μg/kg mouse body weight for the high dose group, 125 μg/kg mouse body weight for the medium dose group, and 62.5 μg/kg mouse body weight for the low dose group respectively. 14 days later, the second immunization was performed in the same dosage and manner as the first immunization except that, Freund's complete adjuvant was replaced by Freund's incomplete adjuvant. 14 days later, the third immunization was performed in the same dosage and manner as the first immunization except that, Freund's complete adjuvant was replaced by Freund's incomplete adjuvant. 14 days later, the fourth immunization was performed by the following process: 0.1 ml of Peptide A dissolved in physiological saline was administered without any adjuvants via intraperitoneal injection to each rat, wherein the dosage of Peptide A was 250 μg/kg mouse body weight for the high dose group, 125 μg/kg mouse body weight for the medium dose group, and 62.5 μg/kg mouse body weight for the low dose group respectively.
At the days of immunization for the high dose group, the medium dose group and the low dose group, starting at Day 0, the corresponding physiological saline was injected into each rat of the model group and the blank control group, for up to four times; meanwhile, the corresponding adjuvant and physiological saline were injected for the adjuvant control group, for up to four times.
At the first day before the fourth immunization, 0.05 ml CCl4 was administered via subcutaneous injection to each mouse of all groups other than the blank control group; and the equivalent volume of physiological saline was injected for the blank control group. At the second day after the fourth immunization, all of mice were sacrificed.
Just before sacrificing all mice, each rat was weighed, and then sacrificed by cervical dislocation. Then Blood was collected, before sera were isolated.

IL-10 = test: Level of IL-10 in sera of immunized mice by ELISA; assay type: in vivo, BALB/c Mice; conditions: first day after the fourth immunization
Experimental: as §1, §2, §3

[6] = test system: Sera of Patients with HCV (anti-HCV antibody-positive sera); test: Indirect ELISA, reactivity of the peptides to anti-HCV antibody-positive sera; assay type: binding, human; conditions: for reactivity to sera of patients with HCV compared to sera of patients with HBV and healthy donors: X^2-test; for Percentage of Positive Cases (%) / The Number of Positive Cases: anti-HCV antibody-positive sera of 30 patients, sera dilution 1:100, 10 μg peptide coated
Experimental: Anti-HCV antibody-positive sera: randomly obtained from inpatients infected with HCV in the Liberation Army 302 Hospital from 2000 to 2001.
(§4) The reactivity of the individual peptide of the invention to sera was detected by standard indirect ELISA technology using Model DG3022 Enzyme-Linked Immunoassay Analyzer (purchased from Perkin Elmer Corporation). 10 μg of Peptide A, Peptide B, Peptide C, and Peptide Conjugate A were added respectively into the basic coating buffer (0.1 mol/L NaHCO3, 35 μl; 0.1 mol/L Na2CO3, 15 μl; H2O, 50 μl), and then transferred into the wells of polypropylene/ethylene microtiter plate, and placed at 4° C. overnight. After adding 120 μl of FCS-PBS, each well was blocked at 37° C. for 2 hours. Sera (dilution of 1:100) were then added to the wells, and incubated at 37° C. for 1 hour. Goat anti-human IgGs (dilution of 1:1000) (purchased from Sino-American Biotechnology Company, Beijing) were then added to the wells, and incubated at 37° C. for 1 hour. 50 μl of Solution A and Solution B (purchased from Beijing Kewei Reagent Company) were added to every well, placed in the dark for 5 min, and then the absorbance at 450 nm was measured.

sera of healthy donors = test: Indirect ELISA, reactivity of the peptides to control sera of healthy donors; assay type: binding, human; conditions: sera of 10 healthy donors
Experimental: Control sera: obtained from healthy blood donors, who had normal blood indexes in each assay.
as §4

[7] = test system: sera of patients with HBV; test: Indirect ELISA, reactivity of the peptides to sera of patients with Hepatitis B; assay type: binding, human; conditions: sera of 10 patients with HBV
Experimental: Sera of patients with Hepatitis B (HBV): obtained from inpatients with Hepatitis B in the Liberation Army 302 Hospital, who was positive for the surface antigen of Hepatitis B virus as assayed.
as §4

IL-4 = test: Level of IL-4 in sera of immunized mice by ELISA; assay type: in vivo, BALB/c Mice; conditions: first day after the fourth immunization
Experimental: as §1, §2, §3

[8] = high, medium, low dosage (174, 87, 43.5 μg/kg) with adjuvant, four immunizations, 48 h after D-aminogalactose 600 mg/kg
[9] = high, medium, low dosage (174, 87, 43.5 μg/kg) without adjuvants, subcutaneous, four immunizations, 12 h after LPS
[10] = high, medium, low dosage (250, 125, 62.5 μg/kg) with adjuvant, four immunizations, CCl4 subcutaneous
[11] = 13.5 mg/kg intraperitoneal, every day for 7 days

Compound | γ-IFN(pg/ml serum) (γ-IFN [2]) | IL-10(pg/ml serum) (IL-10) | reactivity to sera of patients with HCV compared to sera of patients with HBV and healthy donors [6] | Percentage of Positive Cases (%) [6] [%] | The Number of Positive Cases [6] | reactivity in ELISA Assay to sera of healthy donors (sera of healthy donors) | reactivity in ELISA Assay to sera of patients with HBV [7] | IL-4(pg/ml serum) (IL-4) | other results
GQTYTSG [Peptide A] | 23.46 ± 5.9 | 27.94 ± 6.4 | significantly react | 43 | 13 | negative | negative | 29.64 ± 4.9 | level of glutamic-oxalacetic transaminase (SGOT) in sera versus model group [1, 8]: significant decrease; level of glutamic-pyruvic transaminase (SGPT) in sera versus model group [1, 8]: significant decrease; level of γ-IFN, Peptide A only with no adjuvant, versus same dosage of Peptide A and adjuvant (γ-IFN [3]; 50 μg/kg subcutaneous): even higher; γ-IFN in sera of the immunized rats compared to both of the control groups (γ-IFN [3]; Peptide A 50 or 25 μg/kg with adjuvant, or 50 μg/kg without adjuvant, FIG. 2): significant increase; pathological condition of liver (score) versus model group ([4]; high and medium dosage (174, 87 μg/kg) without any adjuvants): significant alleviation; level of glutamic-oxalacetic transaminase (SGOT) in sera versus model group [4, 9]: significant decrease; level of glutamic-pyruvic transaminase (SGPT) in sera versus model group [4, 9]: significant decrease; pathological condition of liver (score) versus model group ([4]; low dosage (43.5 μg/kg) with adjuvant): significant alleviation; protective effect on acute immunological liver damage (SGPT, SGOT) ([4]; low dose & adjuvant group, 43.5 μg/kg): protective effect; tetrachloromethane-induced hepatomegaly of mice ([5]; 250 μg/kg mouse body weight): significant reduction; pathological conditions of the liver tissues (score) versus model group ([5]; high dose group, 250 μg/kg with adjuvant): alleviated significantly; level of glutamic-oxalacetic transaminase (SGOT) in sera versus model group [5, 10]: significant decrease; level of glutamic-pyruvic transaminase (SGPT) in sera versus model group [5, 10]: significant decrease
CC1(C)[C@@H](O[C@H]2O[C@H](C(=O)O)[C@@H](O)[C@H](O)[C@H]2O[C@@H]2O[C@H](C(=O)O)[C@@H](O)[C@H](O)[C@H]2O)CC[C@]2(C)[C@H]3C(=O)C=C4[C@@H]5C[C@@](C)(C(=O)O)CC[C@]5(C)CC[C@@]4(C)[C@]3(C)CC[C@@H]12.N.N [diammonium glycyrrhizinate injection, diammonium glycyrrhizinate, reference compound] |  |  |  |  |  |  |  |  | protective effect on acute liver damage of rats (SGPT, SGOT) [1, 11]: significant protective effect; protective effect on liver damage of rats (SGPT, SGOT) [4, 11]: no significant protective effect; protective effect on liver damage of rats (pathological condition score) [4, 11]: no significant protective effect
GQTYTSGG [Peptide C] | 24.81 ± 5.8 | 26.926 ± 5.8 | significantly react | 47 | 14 | negative | negative | 31.22 ± 5.0 | 
GQTYTSGA [Peptide B] | 28.46 ± 5.9 | 27.94 ± 6.4 | significantly react | 50 | 15 | negative | negative | 30.64 ± 4.9 | 
